According to PubChem BioAssay (NCI):
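A five-concentration, 48-hour dose response in 96-well plates underlies each endpoint, interpolated linearly between surrounding concentrations. TGI: concentration producing complete growth inhibition.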

Assays:
Assay in all cases: NCI anticancer screen, dose series, 48 h
[1] = test system: NCI-H23 lung
[2] = test system: NCI-H460 lung
[3] = test system: T-47D breast
[4] = test system: LOX IMVI melanoma
[5] = test system: HT29 colon
[6] = test system: KM12 colon
[7] = test system: OVCAR-3 ovarian
[8] = test system: SNB-19 CNS
[9] = test system: U251 CNS
[10] = test system: DU-145 prostate
[11] = test system: SK-MEL-5 melanoma
[12] = test system: UO-31 renal
[13] = test system: SF-268 CNS
[14] = test system: HCT-15 colon
[15] = test system: SF-539 CNS
[16] = test system: M14 melanoma
[17] = test system: NCI-H226 lung
[18] = test system: UACC-62 melanoma
[19] = test system: SN12C renal
[20] = test system: SK-OV-3 ovarian
[21] = test system: NCI/ADR-RES ovarian
[22] = test system: ACHN renal
[23] = test system: MDA-MB-435
[24] = test system: MCF7 breast
[25] = test system: OVCAR-8 ovarian
[26] = test system: MDA-MB-231 breast
[27] = test system: HL-60(TB) leukemia
[28] = test system: IGROV1 ovarian
[29] = test system: HCT-116 colon
[30] = test system: OVCAR-5 ovarian
[31] = test system: HOP-92 NSCLC
[32] = test system: COLO 205 colon
[33] = test system: SNB-75 CNS
[34] = test system: HS 578T breast
[35] = test system: CAKI-1 renal
[36] = test system: SR leukemia
[37] = test system: K-562 leukemia
[38] = test system: 786-0 renal
[39] = test system: HOP-62 NSCLC
[40] = test system: EKVX NSCLC
[41] = test system: A549 NSCLC
[42] = test system: TK-10 renal
[43] = test system: UACC-257 melanoma
[44] = test system: SK-MEL-2 melanoma
[45] = test system: OVCAR-4 ovarian
[46] = test system: SW-620 colon
[47] = test system: PC-3 prostate
[48] = test system: RXF 393 renal
[49] = test system: MALME-3M melanoma
[50] = test system: NCI-H522 lung
[51] = test system: SK-MEL-28 melanoma
[52] = test system: SF-295 CNS
[53] = test system: CCRF-CEM leukemia
[54] = test system: RPMI-8226 leukemia
[55] = test system: A498 renal
[56] = test system: BT-549 breast
[57] = test system: MOLT-4 leukemia

COc1cc2c(cc1OCCCCOc1cc3nc(C)nc(Cl)c3cc1OC)N=C[C@@H]1CCCN1C2=O
TGI [1]: 3.37 µM | TGI [2]: 45.6 µM | TGI [3]: 31.8 µM | TGI [4]: 3.04 µM | TGI [5]: 10.2 µM | TGI [6]: 4.44 µM | TGI [7]: 4.7 µM | TGI [8]: 33.1 µM | TGI [9]: 6.88 µM | TGI [10]: 13.2 µM | TGI [11]: 3.4 µM | TGI [12]: 4.73 µM | TGI [13]: 8.44 µM | TGI [14]: 8.78 µM | TGI [15]: 4.2 µM | TGI [16]: 3.5 µM | TGI [17]: 4.07 µM | TGI [18]: 2.8 µM | TGI [19]: 4.8 µM | TGI [20]: > 100 µM | TGI [21]: 6.87 µM | TGI [22]: 8.82 µM | TGI [23]: 2.97 µM | TGI [24]: > 100 µM | TGI [25]: 5.48 µM | TGI [26]: 3.43 µM | TGI [27]: 7.43 µM | TGI [28]: 4.6 µM | TGI [29]: 5.59 µM | TGI [30]: 5.3 µM | TGI [31]: 5.52 µM | TGI [32]: 45.4 µM | TGI [33]: 3.34 µM | TGI [34]: 5.63 µM | TGI [35]: 5.82 µM | TGI [36]: 1.96 µM | TGI [37]: 4.79 µM | TGI [38]: 12.4 µM | TGI [39]: 7.24 µM | TGI [40]: 19.4 µM | TGI [41]: 7.56 µM | TGI [42]: 6.04 µM | TGI [43]: 4.04 µM | TGI [44]: 3.6 µM | TGI [45]: 11.1 µM | TGI [46]: 10.1 µM | TGI [47]: 8.91 µM | TGI [48]: 4.64 µM | TGI [49]: 3.4 µM | TGI [50]: 2.12 µM | TGI [51]: 5.54 µM | TGI [52]: 6.76 µM

CCOC(=O)C1C=C1C(C)(C)O (stereo unspecified)
TGI [1]: > 10 µM | TGI [2]: > 10 µM | TGI [3]: > 10 µM | TGI [4]: > 10 µM | TGI [5]: > 10 µM | TGI [6]: > 10 µM | TGI [53]: > 10 µM | TGI [7]: > 10 µM | TGI [8]: > 10 µM | TGI [9]: > 10 µM | TGI [10]: > 10 µM | TGI [11]: > 10 µM | TGI [54]: > 10 µM | TGI [12]: > 10 µM | TGI [13]: > 10 µM | TGI [14]: > 10 µM | TGI [15]: > 10 µM | TGI [16]: > 10 µM | TGI [17]: > 10 µM | TGI [19]: > 10 µM | TGI [20]: > 10 µM | TGI [22]: > 10 µM | TGI [23]: > 10 µM | TGI [24]: > 10 µM | TGI [25]: > 10 µM | TGI [27]: > 10 µM | TGI [28]: > 10 µM | TGI [55]: > 10 µM | TGI [30]: > 10 µM | TGI [56]: > 10 µM | TGI [31]: > 10 µM | TGI [33]: > 10 µM | TGI [34]: > 10 µM | TGI [36]: > 10 µM | TGI [37]: > 10 µM | TGI [38]: > 10 µM | TGI [39]: > 10 µM | TGI [40]: > 10 µM | TGI [41]: > 10 µM | TGI [42]: > 10 µM | TGI [43]: > 10 µM | TGI [44]: > 10 µM | TGI [57]: > 10 µM | TGI [46]: > 10 µM | TGI [47]: > 10 µM | TGI [48]: > 10 µM | TGI [49]: > 10 µM | TGI [51]: > 10 µM | TGI [52]: > 10 µM
